{"source": "ChEMBL document CHEMBL1201862", "about": "“PubChem BioAssay data set” (2004)", "key": {"[1]": {"experiment": "ATP-based viability loss in HEK293T cells – cell-based, CellTiter-Glo luminescence, dry powder, set 2, cytotoxicity control, dose response (AID 720595)", "assay_type": "functional", "conditions": "HEK293"}, "[2]": {"target": "T1, Long-chain-fatty-acid--AMP ligase FadD28 (Mycobacterium tuberculosis, UniProt P9WQ59)", "T1 sequence (P9WQ59 whole entry)": "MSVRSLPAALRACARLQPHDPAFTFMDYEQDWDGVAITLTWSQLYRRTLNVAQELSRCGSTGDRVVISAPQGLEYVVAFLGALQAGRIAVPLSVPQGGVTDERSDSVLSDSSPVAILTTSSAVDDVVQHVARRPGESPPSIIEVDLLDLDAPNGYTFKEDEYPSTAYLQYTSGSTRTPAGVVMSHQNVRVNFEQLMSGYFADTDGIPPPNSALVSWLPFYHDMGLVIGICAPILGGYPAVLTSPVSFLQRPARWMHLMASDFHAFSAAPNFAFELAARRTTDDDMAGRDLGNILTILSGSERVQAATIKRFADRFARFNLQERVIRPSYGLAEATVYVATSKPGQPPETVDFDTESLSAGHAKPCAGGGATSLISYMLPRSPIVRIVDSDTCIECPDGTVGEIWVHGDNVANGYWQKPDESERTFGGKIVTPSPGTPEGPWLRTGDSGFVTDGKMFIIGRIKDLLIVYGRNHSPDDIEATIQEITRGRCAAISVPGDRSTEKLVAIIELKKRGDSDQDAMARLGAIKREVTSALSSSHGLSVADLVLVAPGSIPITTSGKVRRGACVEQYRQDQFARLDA", "experiment": "Fluorescence polarization aasay to screen for inhibitors that compete for the binding of FadD28 to a bisubstrate Measured in Biochemical System Using Plate Reader - 2147-01_Inhibitor_Dose_CherryPick_Activity.", "assay_type": "functional, Mycobacterium tuberculosis H37Rv"}, "[3]": {"target": "Cell division cycle 7-related protein kinase (Homo sapiens, UniProt O00311)", "sequence (O00311 whole entry)": "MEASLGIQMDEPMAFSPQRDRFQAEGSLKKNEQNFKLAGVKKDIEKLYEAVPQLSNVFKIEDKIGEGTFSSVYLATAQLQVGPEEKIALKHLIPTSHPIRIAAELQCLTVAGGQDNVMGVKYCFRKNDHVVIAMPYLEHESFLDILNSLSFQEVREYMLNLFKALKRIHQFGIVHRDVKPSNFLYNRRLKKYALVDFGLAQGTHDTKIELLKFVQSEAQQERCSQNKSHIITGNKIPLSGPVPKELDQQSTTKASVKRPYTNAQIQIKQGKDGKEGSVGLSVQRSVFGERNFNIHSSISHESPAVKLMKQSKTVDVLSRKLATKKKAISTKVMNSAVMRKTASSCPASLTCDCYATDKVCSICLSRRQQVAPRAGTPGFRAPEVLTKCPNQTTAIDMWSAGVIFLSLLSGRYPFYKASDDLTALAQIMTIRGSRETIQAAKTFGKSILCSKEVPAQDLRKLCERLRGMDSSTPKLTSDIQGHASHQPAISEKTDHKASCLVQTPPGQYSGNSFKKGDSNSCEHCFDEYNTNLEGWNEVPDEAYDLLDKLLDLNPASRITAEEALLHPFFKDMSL", "assay_type": "functional"}}, "note": "The source made the active and inactive calls.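 Throughout, for pKi: value obtained from a kinome-wide kinase panel.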", "data": [{"smiles": "CC(C)CC(=O)NC(c1cccs1)c1ccc2cccnc2c1O", "note": "(centres undefined)", "values": [{"measurement": "AC50", "setting": "[1]", "value": "1750 nM (active)"}]}, {"smiles": "CCCCCCCCCCCCCCCC[N+](C)(C)C", "values": [{"measurement": "AC50", "setting": "[2]", "value": "12700 nM (active)"}]}, {"smiles": "NC1CCC(Nc2nc(Cl)cc(-c3c[nH]c4ncccc34)n2)CC1", "note": "(centres undefined)", "values": [{"measurement": "Ki", "setting": "[3]", "value": "0.316 nM (active)"}, {"measurement": "pKi", "setting": "[3]", "value": 9.5}]}]}
